Experimental data from US4610989A, “Analgesic composition containing a mixture of 6-chloro-α-methyl-carbazole-2-acetic acid plus an opiate as the active agent” (priority 1985, dated 1986).
Values joined by “and” are separate entries in the source; they are usually repeats but may differ in a detail not shown here. Identical values can stand only once. Like-named read-outs stand apart in the source and are kept apart here.

System: phenylquinone induced writhing
Type: in vivo, male CF-1 mice
Settings: for ED50 (95% Conf. Limits): p.o.; for ED50 (95% Conf. Limits) / Oral ED50 (95% Confidence Limits) / Oral Ed50: given alone; for Oral ED50 (95% Confidence Limits): Table II; for % Inhibition / No. Writhing Episodes: alone
Method: The phenylquinone was dissolved in 5% ethyl alcohol and distilled water, gently heated to 37° C. and kept in a brown stoppered bottle to prevent deterioration. The test compounds were administered orally, in rapid succession, in distilled water 15 minutes prior to the phenylquinone.
The means and standard deviations computed during this analysis were then analyzed by "parallel line bioassay" that compared the opiate alkaloid alone in graded doses against, in turn, each combination of a range of opiate alkaloid doses plus a constant dose of carbazole compound. […] The opiate alkaloid dose scale here was always logarithmic.
The sequence of treatments in this study was not random. Rather, the ED50 for opiate alkaloid alone was determined. After this, combination experiments were conducted in which the carbazole racemic 6-chloro-α-methyl-carbazole-2-acetic acid, was administered at a constant dose and the ED50 of opiate alkaloid was redetermined in the presence of racemic 6-chloro-α-methyl-carbazole-2-acetic acid.
Inhibition of phenylquinone induced writhing by oxycodone potentiated by 6-chloro-α-methyl carbazole-2-acetic acid was determined by the procedure described hereinabove with one change. […] This transformation consisted of the [(square root of the number of writhes)+(square root of the number of writhes+1)] and is commonly employed with data that are distributed in a Poisson distribution.
Inhibition of phenylquinone induced writhing by morphine potentiated by 6-chloro-α-methyl-carbazole-2-acetic acid was determined by the procedure described hereinabove with one further change. […] This analysis was carried out on the set of values representing the percent of inhibition of writhing observed at each dose, as defined above, in any given assay.

[1] = Table I, regression analysis and Fieller's Theorem
[2] = Table III, square-root transformed writhes
[3] = Table V, Litchfield and Wilcoxon

CC(C(=O)O)c1ccc2c(c1)[nH]c1ccc(Cl)cc12 (racemic) [Compound A, 6-chloro-α-methyl-carbazole-2-acetic acid]
ED50 (95% Conf. Limits) [1]: 48.8 (25.7-72.0) mg/kg
Oral ED50 (95% Confidence Limits): 48.8 (25.7-72.0)
ED50 (95% Conf. Limits) [2]: 41.9 (33.5-50.0) mg/kg
Oral Ed50 (Table IV): 41.9(33.5-50.0)
ED50 (95% Conf. Limits) [3]: 54(27-108) mg/kg
Oral Ed50 (Table VI): 54(27-108)
% Inhibition (oral dose 25): 17% and 18% and 29%
No. Writhing Episodes (oral dose 25): 91 and 103 and 86
% Inhibition (oral dose 50): 58% and 48% and 51%
No. Writhing Episodes (oral dose 50): 47 and 66 and 59
% Inhibition (oral dose 100): 87% and 73% and 74%
% Inhibition (oral dose 200): 96% and 90% and 91%

COc1ccc2c3c1O[C@H]1[C@@H](O)C=C[C@H]4[C@@H](C2)N(C)CC[C@@]341 [Codeine, codeine]
ED50 (95% Conf. Limits) [1]: 9.2 (6.6-11.9) mg/kg
Oral ED50 (95% Confidence Limits): 9.2 (6.6-11.9)
% Inhibition (oral dose 5): 19%
No. Writhing Episodes (oral dose 5): 92
% Inhibition (oral dose 10): 62%
No. Writhing Episodes (oral dose 10): 43
% Inhibition (oral dose 20): 86%
No. Writhing Episodes (oral dose 20): 16
% Inhibition (oral dose 40): 98%
No. Writhing Episodes (oral dose 40): 2

CN1CC[C@]23c4c5ccc(O)c4O[C@H]2[C@@H](O)C=C[C@H]3[C@H]1C5 [Morphine, morphine]
ED50 (95% Conf. Limits) [3]: 2.5(1-4) mg/kg
Oral Ed50 (Table VI): 2.5(1-4)
% Inhibition (oral dose 1.25): 21%
% Inhibition (oral dose 2.5): 47%
% Inhibition (oral dose 5): 83%
% Inhibition (oral dose 10): 95%

COc1ccc2c3c1O[C@H]1C(=O)CC[C@@]4(O)[C@@H](C2)N(C)CC[C@]314 [Oxycodone, oxycodone]
ED50 (95% Conf. Limits) [2]: 0.25 (0.19-0.32) mg/kg
Oral Ed50 (Table IV): 0.25(0.19-0.32)
% Inhibition (oral dose 0.125): 23%
No. Writhing Episodes (oral dose 0.125): 87
% Inhibition (oral dose 0.25): 43%
No. Writhing Episodes (oral dose 0.25): 64
% Inhibition (oral dose 0.5): 73%
No. Writhing Episodes (oral dose 0.5): 31
% Inhibition (oral dose 1): 88%
No. Writhing Episodes (oral dose 1): 14
% Inhibition (oral dose 2): 96%
No. Writhing Episodes (oral dose 2): 5
